Source: patent publication US7259140B2, “Heparin-binding peptides and uses thereof” (Thomas Jefferson University, priority 2003, dated 2007)
Entries after “also recorded” stand apart in the source; their conditions may differ. Bridge positions count the residues as written; N and C are the ends. Peptide text beside a SMILES is read from it.

Tests used:
[1] = test system: anti-Factor Xa Activity of Unfractionated Heparin; assay: Anti-Factor Xa assay: neutralization of unfractionated heparin in citrate or plasma in vitro; format: biochemical, human; conditions: UFH 0.7 U/ml
How it was run: (§1)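 Chromogenic anti-Factor Xa kit run with UFH, enoxaparin (Lovenox) or danaparoid (Orgaran) in 0.32% citrate or citrated plasma from three volunteers. Heparin/ATIII complex formed, peptide added, then Factor Xa and dye substrate; absorbance at 405 nm, inversely proportional to remaining anti-Factor Xa activity.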

[2] = Hemodynamic effects in rats after administration of the LMWH Lovenox; conditions: in the presence of LMWH Lovenox
Description: Next, experiments were performed in which the animals were treated with the peptides after the administration of the LMWH Lovenox®, as would happen in the clinical situation, because binding of peptides to LMWH would be expected to reduce the effects of the peptides on hemodynamic function.

[3] = Hemodynamic effects in rats without prior Lovenox; conditions: 2 mg per rat, no Lovenox
Description: Rats were sedated, and catheters were inserted into the femoral vein and femoral artery. The femoral artery catheter was hooked up to the computerized monitoring system, and injections were made through the femoral vein. Peptides were injected into rats without prior injection of Lovenox. Two or more rats (300-350 grams) were treated with 2 mg protamine or peptide.
At the times indicated in the figures, the following actions were taken: administration of saline to insure that the animal and intubations were stable; administration of test peptide or protamine alone; then administration of protamine.

platelets = assay: Platelet aggregation with aggregation-inducing agents; format: cell-based, human; conditions: 12 μg/ml; Lovenox 0.5 U/ml; collagen, ADP, ristocetin, epinephrine, SFFLRN, A23187
How it was run: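 Plasma from six donors, platelets equilibrated 1 min before agonist (collagen, ADP, ristocetin, epinephrine, SFFLRN, A23187; several concentrations each). Heparin-binding peptides at 12 μg/ml, Lovenox at 0.5 U/ml, protamine also tested. Percent aggregation monitored over 5 min.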

[4] = test system: Anti-Factor Xa Activity of the Non-Heparin Glycosaminoglycan Orgaran ®; assay: Anti-Factor Xa assay: neutralization of Orgaran in citrate or plasma in vitro; format: biochemical, human
How it was run: as §1

[5] = test system: unfractionated heparin (thrombin-induced clot formation); assay: Thrombin neutralization assay: clotting time of citrated plasma in the presence of unfractionated heparin; format: biochemical, human; conditions: for Time for clot formation: UFH 0.5 IU/ml
How it was run: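 Citrated plasma from three donors was combined with unfractionated heparin (0.5 IU anti-thrombin activity/ml) and heparin-binding peptide for 1 min at room temperature in glass tubes. Thrombin was then added, and clotting time was determined by visual observation of clot formation.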

C[C@@H]1NC(=O)[C@H](C)NC(=O)[C@H](CCCCN)NC(=O)[C@H](CCCCN)NC(=O)[C@H](CCCNC(=N)N)NC(=O)[C@H](C)NC(=O)[C@H](C)NC(=O)[C@H](CCCCN)NC(=O)[C@H](C)NC(=O)[C@H](C)NC(=O)[C@H](CCCCN)NC(=O)[C@H](CCCCN)NC(=O)[C@H](CCCNC(=N)N)NC(=O)[C@H](C)NC(=O)[C@@H](N)CSSC[C@@H](C(=O)O)NC(=O)[C@H](C)NC(=O)[C@H](CCCCN)NC(=O)[C@H](C)NC(=O)[C@H](C)NC(=O)[C@H](CCCCN)NC(=O)[C@H](CCCCN)NC(=O)[C@H](CCCNC(=N)N)NC(=O)[C@H](C)NC(=O)[C@H](C)NC(=O)[C@H](CCCCN)NC(=O)[C@H](C)NC(=O)[C@H](C)NC(=O)[C@H](CCCCN)NC(=O)[C@H](CCCCN)NC(=O)[C@H](CCCNC(=N)N)NC(=O)[C@H](C)NC(=O)[C@H](C)NC(=O)[C@H](CCCCN)NC1=O [C(ARKKAAKA)4C, cyclized C(ARKKAAKA)4C] (H-CARKKAAKAARKKAAKAARKKAAKAARKKAAKAC-OH; disulfide 1-34)
Unfractionated Heparin Neutralized ([1]; 1 μg/ml Peptide, A Plasma): 0.157 ± 0.032 U/ml | Unfractionated Heparin Neutralized ([1]; 1 μg/ml Peptide, B Plasma): 0.194 ± 0.066 U/ml | Unfractionated Heparin Neutralized ([1]; 1 μg/ml Peptide, C Plasma): 0.078 ± 0.027 U/ml | Unfractionated Heparin Neutralized ([1]; 1 μg/ml Peptide, Citrate): 0.131 ± 0.070 U/ml | Unfractionated Heparin Neutralized ([1]; 6 μg/ml Peptide, A Plasma): 0.442 ± 0.031 U/ml | Unfractionated Heparin Neutralized ([1]; 6 μg/ml Peptide, B Plasma): 0.426 ± 0.064 U/ml | Unfractionated Heparin Neutralized ([1]; 6 μg/ml Peptide, C Plasma): 0.447 ± 0.054 U/ml | Unfractionated Heparin Neutralized ([1]; 6 μg/ml Peptide, Citrate): 0.590 ± 0.024 U/ml | Unfractionated Heparin Neutralized ([1]; 12 μg/ml Peptide, A Plasma): 0.579 ± 0.128 U/ml | Unfractionated Heparin Neutralized ([1]; 12 μg/ml Peptide, B Plasma): 0.552 ± 0.056 U/ml | Unfractionated Heparin Neutralized ([1]; 12 μg/ml Peptide, C Plasma): 0.583 ± 0.066 U/ml | Unfractionated Heparin Neutralized ([1]; 12 μg/ml Peptide, Citrate): 0.560 ± 0.012 U/ml | Unfractionated Heparin Neutralized ([1]; 60 μg/ml Peptide, A Plasma): 0.605 ± 0.088 U/ml | Unfractionated Heparin Neutralized ([1]; 60 μg/ml Peptide, B Plasma): 0.566 ± 0.036 U/ml | Unfractionated Heparin Neutralized ([1]; 60 μg/ml Peptide, C Plasma): 0.572 ± 0.076 U/ml | Unfractionated Heparin Neutralized ([1]; 60 μg/ml Peptide, Citrate): 0.560 ± 0.018 U/ml | Unfractionated Heparin Neutralized ([1]; 120 μg/ml Peptide, A Plasma): 0.618 ± 0.051 U/ml | Unfractionated Heparin Neutralized ([1]; 120 μg/ml Peptide, B Plasma): 0.512 ± 0.032 U/ml | Unfractionated Heparin Neutralized ([1]; 120 μg/ml Peptide, C Plasma): 0.580 ± 0.051 U/ml | Unfractionated Heparin Neutralized ([1]; 120 μg/ml Peptide, Citrate): 0.530 ± 0.019 U/ml | effect on blood pressure and heart rate / toxicity [2]: no, or minimal, adverse effects on blood pressure or heart rate; also recorded: not toxic | effect on blood pressure and heart rate / toxicity ([2]; listed as C(ARKKAAKA)4C-cyclized): All rats tested showed no response | effect on blood pressure [3]: did not cause a change in blood pressure | effect on platelet aggregation (platelets): no significant inhibition or enhancement of aggregation | Orgaran Neutralized ([4]; 1 μg/ml Peptide, A Plasma): 0.016 ± 0.012 U/ml | Orgaran Neutralized ([4]; 1 μg/ml Peptide, B Plasma): 0.038 ± 0.036 U/ml | Orgaran Neutralized ([4]; 1 μg/ml Peptide, C Plasma): 0.008 ± 0.005 U/ml | Orgaran Neutralized ([4]; 1 μg/ml Peptide, Citrate): 0.072 ± 0.052 U/ml | Orgaran Neutralized ([4]; 6 μg/ml Peptide, A Plasma): 0.074 ± 0.049 U/ml | Orgaran Neutralized ([4]; 6 μg/ml Peptide, B Plasma): 0.027 ± 0.016 U/ml | Orgaran Neutralized ([4]; 6 μg/ml Peptide, C Plasma): 0.030 ± 0.009 U/ml | Orgaran Neutralized ([4]; 6 μg/ml Peptide, Citrate): 0.099 ± 0.062 U/ml | Orgaran Neutralized ([4]; 12 μg/ml Peptide, A Plasma): 0.050 ± 0.031 U/ml | Orgaran Neutralized ([4]; 12 μg/ml Peptide, B Plasma): 0.082 ± 0.029 U/ml | Orgaran Neutralized ([4]; 12 μg/ml Peptide, C Plasma): 0.063 ± 0.025 U/ml | Orgaran Neutralized ([4]; 12 μg/ml Peptide, Citrate): 0.180 ± 0.023 U/ml | Orgaran Neutralized ([4]; 60 μg/ml Peptide, A Plasma): 0.287 ± 0.033 U/ml | Orgaran Neutralized ([4]; 60 μg/ml Peptide, B Plasma): 0.282 ± 0.020 U/ml | Orgaran Neutralized ([4]; 60 μg/ml Peptide, C Plasma): 0.250 ± 0.030 U/ml | Orgaran Neutralized ([4]; 60 μg/ml Peptide, Citrate): 0.319 ± 0.016 U/ml | Orgaran Neutralized ([4]; 120 μg/ml Peptide, A Plasma): 0.389 ± 0.118 U/ml | Orgaran Neutralized ([4]; 120 μg/ml Peptide, B Plasma): 0.374 ± 0.062 U/ml | Orgaran Neutralized ([4]; 120 μg/ml Peptide, C Plasma): 0.335 ± 0.012 U/ml | Orgaran Neutralized ([4]; 120 μg/ml Peptide, Citrate): 0.340 ± 0.010 U/ml | effectiveness in thrombin neutralization assay [5]: effective | Time for clot formation ([5]; 0.35 μg peptide/0.1 ml, plasma A): 37.67 ± 5.25 s | Time for clot formation ([5]; 0.40 μg peptide/0.1 ml, plasma A): 29.00 ± 0.82 s | Time for clot formation ([5]; 0.40 μg peptide/0.1 ml, plasma B): 47.67 ± 8.34 s | Time for clot formation ([5]; 0.40 μg peptide/0.1 ml, plasma C): 56.33 ± 1.70 s | Time for clot formation ([5]; 0.50 μg peptide/0.1 ml, plasma A): 23.67 ± 2.05 s | Time for clot formation ([5]; 0.50 μg peptide/0.1 ml, plasma B): 34.33 ± 1.25 s | Time for clot formation ([5]; 0.50 μg peptide/0.1 ml, plasma C): 43.00 ± 2.45 s
